Assay results taken from article PMC7206208, “In vivo data: treatment with the F11R/JAM-A peptide 4D decreases mortality and reduces the generation of atherosclerotic plaques in ApoE-deficient mice” (Data in Brief, 2020).
Non-standard residues stand in square brackets, D forms with d. Residues, ends and D or L forms follow the SMILES beside them.

What was measured:
[1] = mouse, in vivo
Experimental: The concentration of peptide 4D was measured in the plasma at various time points, and is expressed in µg/ml. […] Time points of 15 min, followed by 1, 2, 4, 5, and 24 hours after the administration of peptide 4D were selected to generate the concentration of Cmax, Tmax, area under the plasma concentration time curve (AUC), drug clearance, terminal elimination half-life, and volume of distribution.
Drug pharmacokinetics (PK) in vivo is a key requirement for the evaluation of the stability and availability of peptide 4D, as a potential compound for use in the next phase of our investigations. Accordingly, PK data of peptide 4D were obtained by the Services of Bio Quant, San Diego, CA. Thus far, a single dose of the F11R peptide 4D and a time perfusion course were performed in Balb/c mice. Time points of 15 min, followed by 1, 2, 4, 5, and 24 hr after the administration of peptide 4D to animals, were selected to generate concentration vs time curves thereby allowing for the determination of the PK parameters of maximal concentration (Cmax), maximal time (Tmax), area under the plasma concentration time curve (AUC), drug clearance, terminal elimination half-life, and volume of distribution of peptide 4D.

[2] = system: human platelets (in platelet-rich plasma); experiment: ADP-induced platelet aggregation in platelet-rich plasma (turbidimetric); type: cell-based; settings: for maximal platelet aggregation [%] in response to 10 µM ADP: PRP, 37°C, 2 min pre-incubation, mean ± SD, n=3-7
Experimental: Fig. 4 Test of the effect of peptide 4D on the ADP-induced aggregation of human platelets (in platelet-rich plasma). Fig. 4A. This figure depicts a representative tracing of platelet aggregation induced by ADP (2µM) in the presence of peptide 4D (P4D; 500µM, final concentration), in comparison to the ADP-induced platelet aggregation in the absence of peptide 4D (control). Fig. 4B. This figure depicts a representative tracing of platelet aggregation induced by ADP (10µM) in the presence of peptide 4D (P4D, 500µM final concentration), in comparison to the ADP-induced platelet aggregation in the absence of peptide 4D (control).
Platelet aggregation in platelet-rich plasma (PRP) was carried-out by using the turbidimetric method in a platelet aggregometer (Chronolog, Haverstown, PA). Aliquots of the PRP were maintained at 37°C. The effect of peptide 4D on platelet aggregation was examined by utilizing three concentrations of peptide 4D (final concentrations of 100µM, 250µM and 500 µM). The PRP was incubated for 2 minutes with peptide 4D prior to the addition of ADP at final concentrations of 2µM (subthreshold concentration) or 10µM, for the initiation of platelet aggregation.

platelets = experiment: M.Ab.F11-induced platelet aggregation in vitro; type: cell-based; settings: peptide 4D 0.3 mg (670 µg/ml), from dose-response
[3] = system: inflamed endothelial cells; settings: in culture; the authors' earlier work; cited from earlier work
Text: The data in this article focus on the F11 Receptor (F11R/JAM-A; Junctional Adhesion Molecule-A; JAM-A, F11R), a cell adhesion protein constitutively expressed on the membrane surface of circulating platelets and localized within the tight junctions of healthy endothelial cells (ECs). Previous reports have shown that F11R/JAM-A plays a critical role in the adhesion of platelets to an inflamed endothelium due to its’ pathological expression on the luminal surface of the cytokine-inflamed endothelium. Since platelet adhesion to an inflamed endothelium is an early step in the development of athero ...

inflamed endothelium = experiment: Platelet adhesion to walls of blood vessels, intravital microscopy; type: in vivo, mice; settings: intravital microscopy videos, arteriole and venule
Text: The F11 Receptor (F11R/JAM-A; Junctional Adhesion Molecule-A; JAM-A; F11R) is a cell adhesion protein present on the surface of circulating platelets and located within the tight junctions of endothelial and epithelial cells. The data presented here confirm in-vivo evidence for the critical role of F11R/JAM-A in the formation of atherosclerotic plaques in ApoE^-/- mice and provide further strong experimental support for our work in Babinska et al. (2019). […] These mice were euthanized, and at the same time, two mice obtained from the peptide 4D-treated group were randomly-selected and euthanized, and their tissues examined histologically in comparison to the controls. […] The data presented in Fig. 3, compare the overall health and physical appearance of 10^1/2 months old ApoE^-/- mice following their termination of a 4- month injection period with either peptide 4D or the vehicle. […] Data of Fig. 5 display the pharmacokinetic analysis (PK) of peptide 4D in vivo. Data display by videos: videos depicting platelet adhesion to the walls of blood vessels using the Intravital Microscopy System are provided and available in this article as the Supplemental Files. […]

ApoE-/- mice = experiment: Chronic treatment of ApoE-/- mice: atherosclerotic plaques and physical appearance; type: in vivo, mouse
Experimental: Female Apo E^-/- mice (six weeks old) of a C57BL/6J background, (Jackson Laboratory, Bar Harbor, Me), were divided into two separately-housed groups. Group 1 was treated with peptide 4D by daily, intraperitoneal injections with peptide 4D (4.3 mg/200µl) for a 3 month period. Group 2 was injected daily with an equivalent amount of diluent vehicle (200µl of 0.9% saline) for the same 3- month period. All animals were fed a regular Rodent Diet (Calories provided by protein 28.1%, fat 12.13% and carbohydrates 59.8%) for two months, then the diet was switched to a Western-type diet (TD.88137 Adjusted Calories Diet (42% from fat) (0.15% cholesterol, 21% anhydrous milk fat) (Harlan Laboratories Inc.) to induce hypercholesterolemia for a period of one month, [2]. Following 3 month of injections with either the F11R peptide 4D or the vehicle, saline, the animals were euthanized. The aortas and hearts were isolated, dissected, and the atherosclerotic lesions were analyzed.
Following euthanasia, the aortas were prepared for dissection and the aortic arches were photographed. Following dissection, en face lesion surface area assay was performed on the aortas and hearts as previously described, [4], [5]. The dissected aortas were stained with Oil-Red-O stain modified from previously described methods, [4], [6]. […] The total intimal lesion area and the necrotic core area (NE) per cross section were quantified by taking the average of 6 sections spaced 30 µm apart, beginning at the base of the aortic root. The necrotic core areas, acellular/anuclear areas (negative for hematoxylin-positive nuclei, white areas of lesion) were measured per cross section from the same slides where total intimal lesion area was measured. […] Lesion areas or necrotic areas (white areas of lesion) where measured and summarized using software Image-J. The aortas were fixed in PBS/4% formaldehyde for 3 days, washed in PBS followed by staining with 1.8% Oil-Red-O in 60% isopropanol for 15 min at 22°C, then de-stained in 60% isopropanol for 5 min. […]

For `CC(C)[C@H](NC(=O)[C@H](CO)NC(=O)[C@H](N)CCCCN)C(=O)N[C@H](C(=O)N[C@H](CCCNC(=N)N)C(=O)N[C@@H](CCC(=O)O)C(=O)N[C@@H](CC(=O)O)C(=O)N[C@H](C(=O)NCC(=O)N[C@H](C(=O)N[C@@H](Cc1ccc(O)cc1)C(=O)N[C@H](C(=O)N[C@@H](CS)C(N)=O)[C@@H](C)O)[C@@H](C)O)[C@@H](C)O)[C@@H](C)O` [peptide 4D] (H-[dK]SVT[dR]EDTGTYTC-NH2; N-terminus and C-terminus assumed), the Tmax [1] was 18 min, the half-life [1] was over 210 min and the “effect on ADP-induced platelet aggregation” value ([2]; Fig. 4 and Table 1, ADP 2 or 10 µM, peptide 100-500 µM) was “lack of an inhibitory effect”. The “maximal platelet aggregation [%] in response to 10 µM ADP” value (from here on “maximal platelet aggregation [%]”) ([2]; P4D 100 µM) was 70 ± 12%, the “maximal platelet aggregation [%]” value ([2]; P4D 250 µM) was 73 ± 13% and the “maximal platelet aggregation [%]” value ([2]; P4D 500 µM) was 74 ± 20%. For the same compound, the “inhibition of M.Ab.F11-induced platelet aggregation” value (platelets) was “completely inhibited”, the “adhesion of platelets to the inflamed endothelial cells” value [3] was “could be blocked” and the “adhesion of platelets onto the inflamed endothelium” value (inflamed endothelium) was “significant blockade”. For the same compound, the “plaque accumulation in the aortic arch and the whole aorta” value (ApoE-/- mice; daily i.p. 215 mg/kg (4.3 mg/200 µl) for 3 months, versus saline controls, two mice per group, Fig. 2) was “much diminished plaque accumulation”, the external physical appearance (ApoE-/- mice; daily i.p. for 3 months, versus saline controls, Fig. 1) was “healthy” and the “skin lesion on the chest” value (ApoE-/- mice; daily i.p. for 4 months, then stopped, observed at 10 1/2 months of age, Fig. 3B) was “lack of lesion”.
